# What was measured:
# [1] = Toxicology in SCID mice (histopathology, blood values); assay type: in vivo
# Method: Figure 5 Toxicity studies of RK-33 in mice • Following injection of 20 mg/kg of RK-33, twice a week for 7 weeks, extensive histopathological examination was carried out following necropsy. Identical patterns were observed both in the control and in the treated mice (n = 2). Samples were stained with H&E. Scale bar is 50 μm. • Pharmacokinetics of RK-33 in SCID mice at various time intervals. Results are mean ± SD from 5 mice. LC-MS/MS method was used to determine concentration of RK-33 in mouse plasma and tissue. • Liquid chromatography–mass spectrometry (LC-MS/MS) analysis was performed to determine different metabolites of RK-33. • RK-33 and metabolites characterized by LC-MS/MS in human liver microsomes using the scan mode function of the LC-MS/MS. • HAPI cells were treated with RK-33 (10 μM), HA14-1 (25 μM), or DMSO vehicle, followed by oligomycin (oligo, 0.5 μg/ml), FCCP (3 μM), and antimycin A (AA, 1 μM) while oxygen consumption rate (OCR) was measured. Pyruvate (10 mM) was added in combination with FCCP to ensure that substrate supply was not rate-limiting for maximal OCR. Data are mean ± SD from 2 to 3 wells and representative of independent experiments performed with two different HAPI passages. OCR is baseline-normalized to the point prior to drug or vehicle addition. • HAPI microglial cells were incubated for 1 h in glucose-free XF24 assay medium that was supplemented with 2-deoxyglucose (50 mM) and pyruvate (10 mM). RK-33 (10 μM), oligomycin (0.5 μg/ml), or vehicle control was additionally present as indicated. Results are mean ± SD from 12 replicates pooled from experiments using two consecutive passages. Significance was assessed by two-sided, unpaired t-test. TEXT PRINTED IN THE PICTURE: (B) RK-33: t½e (hours): 7.31 ± 1.16 (Organ: plasma); t½e (hours): 6.70 ± 1.17 (Organ: kidney); t½e (hours): 10.01 ± 1.24 (Organ: liver); t½e (hours): 8.92 ± 1.45 (Organ: spleen); t½e (hours): 7.48 ± 1.18 (Organ: breast); t½e (hours): 7.25 ± 1.25 (Organ: lung); t½e (hours): 6.72 ± 1.23 (Organ: brain); t½e (hours): 6.25 ± 1.19 (Organ: muscle) | (C) RK-33: Mouse Microsomes + NADPH: 100% (Inc. Time: 0); Mouse Microsomes - NADPH: 100% (Inc. Time: 0); Human Microsomes + NADPH: 100% (Inc. Time: 0); Human Microsomes - NADPH: 100% (Inc. Time: 0); Mouse Microsomes + NADPH: 11% (Inc. Time: 30); Mouse Microsomes - NADPH: 80% (Inc. Time: 30); Human Microsomes + NADPH: 49% (Inc. Time: 30); Human Microsomes - NADPH: 85% (Inc. Time: 30); Mouse Microsomes + NADPH: 4% (Inc. Time: 60); Mouse Microsomes - NADPH: 69% (Inc. Time: 60); Human Microsomes + NADPH: 35% (Inc. Time: 60); Human Microsomes - NADPH: 73% (Inc. Time: 60) DOUBTS OF THE COPYIST ABOUT THIS PICTURE: Panel C prints no substance label of its own; RK-33 is taken from the other panels of the same picture / Panel C prints no unit for Inc. Time / Panel B, column head: read as t½e (hours), small print; the sign after t may be 1/2 e / Panel D (retention times and [M+H]+ of RK-33 and peaks M1-M3) was left out as LC-MS data
# [2] = system: A549, H1299, H23, and H460; assay: MTS viability assay, 72 h, lines with high DDX3 expression; assay type: cell-based; details: range over A549, H1299, H23, H460
# Method: (§1) Proliferation was determined by counting cancer cells over time. Cells were seeded at 7.5 × 10^4 cells/well and counted daily with a TC10 automated cell counter (Bio-Rad, Hercules, CA, USA) at least three times. Viability of cancer cells was determined by MTS assay (CellTiter 96® AQueous One Solution, Promega, Madison, WI, USA) as described by the manufacturer. Briefly, 800–2,000 cells were allowed to attach overnight in a 96-well plate, treated with different concentrations of RK-33 and kept for 72 h. MTS reagent was kept for 2 h. Each experiment was repeated a minimum of three independent times.
# [3] = biological target: Ded1p (yeast homolog of DDX3) (Saccharomyces cerevisiae, UniProt P06634); assay: RNA helicase (unwinding) assay; assay type: biochemical; details: Ded1p 80 nM, 100 μM ATP; 50, 100, 200 nM tested
# Chain of Ded1p (yeast homolog of DDX3) (P06634 whole entry): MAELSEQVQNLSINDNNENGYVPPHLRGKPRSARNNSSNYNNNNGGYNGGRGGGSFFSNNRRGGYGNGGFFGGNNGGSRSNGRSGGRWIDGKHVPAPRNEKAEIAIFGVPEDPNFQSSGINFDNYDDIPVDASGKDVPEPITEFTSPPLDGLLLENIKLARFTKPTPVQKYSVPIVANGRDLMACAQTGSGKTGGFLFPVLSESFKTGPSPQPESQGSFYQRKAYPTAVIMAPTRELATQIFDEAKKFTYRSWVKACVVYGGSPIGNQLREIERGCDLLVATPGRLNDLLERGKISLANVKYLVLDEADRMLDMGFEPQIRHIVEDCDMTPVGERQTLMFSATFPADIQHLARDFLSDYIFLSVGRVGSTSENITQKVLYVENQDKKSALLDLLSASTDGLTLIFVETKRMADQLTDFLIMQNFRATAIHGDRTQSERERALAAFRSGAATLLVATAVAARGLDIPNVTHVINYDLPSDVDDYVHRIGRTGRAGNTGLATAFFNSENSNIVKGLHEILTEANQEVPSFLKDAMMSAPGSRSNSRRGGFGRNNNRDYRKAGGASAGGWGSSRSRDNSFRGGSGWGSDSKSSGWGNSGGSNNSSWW
# Method: The RNA helicase assay was performed as described earlier (Sengoku et al, [2006]) with a few modifications. Briefly, RNA oligomers R41 (unlabeled 41 nt) 5′-[…]-[…]-3′ and R13 (FAM-labeled 13 nt) 5′-[…]-3′ were annealed to form […] RNA duplexes and incubated with R13C (unlabeled 13-nt quencher RNA complementary to R13) 5′-[…]-3′, along with Ded1p protein (80 nM), 100 μM ATP, and […] RNasin (Promega, Madison, WI, USA) in reaction buffer containing 50 mM Tris, pH 7.8, 2 mM MgCl2, 3% glycerol, and 1 mM DTT for various times at room temperature. Reactions were stopped after 30-min incubation at room temperature with stop solution containing proteinase K (1 mg/ml) and SDS (0.6%). Reactions were loaded on acrylamide gels and bands visualized using a Typhoon scanner (GE Healthcare, Piscataway, NJ, USA).
# H3255 = assay: MTS viability assay, 72 h, line with low DDX3 expression; assay type: cell-based
# Method: as §1
substance,measurement,setting,value
"diimidazo[4,5-d:4′,5′-f]-[1,3]diazepine [RK-33]",toxicity at the dose used,[1]; SCID mice,non-toxic
same,ALP,"[1]; mouse, in vivo",69 ± 5 U/l
same,ALT,"[1]; mouse, in vivo",72 ± 34 U/l
same,AST,"[1]; mouse, in vivo",224 ± 152 U/l
same,Albumin,"[1]; mouse, in vivo",3.05 ± 0.05 g/dL
same,Amylase,"[1]; mouse, in vivo",905 ± 42 U/l
same,BUN,"[1]; mouse, in vivo",22 ± 2.0 mg/dL
same,Calcium,"[1]; mouse, in vivo",9.1 ± 0.2 mg/dL
same,Cholesterol,"[1]; mouse, in vivo",120 ± 1 mg/dL
same,Creatinine,"[1]; mouse, in vivo",0.35 ± 0.05 mg/dL
same,Glucose,"[1]; mouse, in vivo",166 ± 4 mg/dL
same,Hb,"[1]; mouse, in vivo",14.7 ± 0.6 g/dL
same,MCV,"[1]; mouse, in vivo",55.1 ± 1.3 fL
same,RBC,"[1]; mouse, in vivo",10.01 ± 0.77 M/μl
same,Thrombocytes,"[1]; mouse, in vivo",746 ± 185 K/μl
same,Triglycerides,"[1]; mouse, in vivo",215 ± 14 mg/dL
same,WBC,"[1]; mouse, in vivo",5.83 ± 2.61 K/μl
same,IC50,[2],4.4 to 8.4 µM
same,concentration from which unwinding activity is reduced (dose-dependent),[3],50 nM
same,IC50,H3255,> 25 µM

# Reference: paper PMC4492822 (EMBO Molecular Medicine, 2015)
